Data set [1] is described as follows: In vitro stability in simulated intestinal fluid. The class given is in vitro ADME. The conditions noted are these: simulated intestinal fluid (SIF) with pancreatin, intestinal enzymes (pancreatin), pH = 6.8. On the procedure: The in vitro stability of LaKe was evaluated following incubation in simulated gastric fluid (SGF), simulated intestinal fluid (SIF), fresh and frozen plasma (rats and humans, respectively), and the presence of hepatocytes (rats and humans) and liver microsomes (rats and humans). At the chosen time points, the mixtures were analyzed by LC-MS/MS to quantify the remaining LaKe and all assays included at least one control compound with known pharmacokinetic properties. […]
centrifuged at 4000 rpm, 4℃ for 20 min. 60 μL of supernatant was mixed with 180 μL of purified water for subsequent LC/MS/MS analysis.
LC-MS/MS Condition: ACQUITY UPLC BEH C18 1.7um 2.1 * 50mm Column (Part No.186002350). Mobile phase: A: 0.1% Formic Acid in Water; B: 0.1% Formic Acid in ACN.
Stability of LaKe in simulated intestinal fluid (SIF)
Preparation of SIF-solution: 0.136 g KH2PO4 and 0.064 g pancreatin was dissolved H2O to a total volume of solution 20 mL. The pH of the test solution was adjusted to 6.80 ± 0.05.
Procedure: 2 μL of a 10mg/ml working solution of LaKe in DMSO was spiked into 96-deep-well plates corresponding to timepoints T0, T60, T120, T360 and T1440. Experiments were performed in duplicate. 198 μL of SIF solution was then transferred to the individual wells (except T0) to reach 0.1mg/ml as the final test concentration for each time point (60, 120, 360, 1440 minutes). […]

Data set [2] is described as follows: Extended pharmacokinetics of LaKe in rats (LaKe, lactate, BHB plasma levels). Format: in vivo, SD rats. On the procedure: (§1) Animals (SD rats, both male and female, 7–9 weeks) were individually housed from 24 h before dosing until the end of the study. Food was withdrawn the night before initiation of study; following food withdrawal, animals were maintained on glucose water containing 5% w/v glucose and 1% saline to suppress endogenous ketone production throughout the study. Food was returned 8 h post-test article dosing. Animals were monitored for distress or notable changes in behavior during the study. The animals were euthanized by CO2 inhalation 2 h after the last sample collection time point.
(§2) Blood collection was performed by jugular vein cannulation of each animal and divided into two parts. About 10–15 μL of blood was used for the analysis of glucose by glucometer measurement. About 0.20 mL of blood was collected into prechilled commercial EDTA-K2 tubes containing 5 μL of the esterase inhibitor (100 mM PMSF in ethanol, 40 mg/mL NaF and 120 mg/mL […] in water = 5:95(v/v). All blood samples were placed on wet ice until centrifugation.
At least 100 μL plasma was collected respectively and transferred into polypropylene tubes with 400 mM TTFA (2-thenoyltrifluoroacetone) in ethanol (plasma:stabilizer = 100:5 (v:v)). The final concentration of TTFA in the plasma sample from each time point was approximately 20 mM. The samples were snap frozen over dry ice and kept at −60 °C or lower until LC-MS/MS analysis for 3-hydroxybutyl 2-hydroxypropanoate (LaKe), lactate, and β-hydroxybutyrate (BHB).
Calibration curves were constructed by linear regression of the peak area of the pure calibrant samples versus the nominal analyte concentrations and based on eight points. The Lac-Phe concentrations in rat plasma samples were derived from their peak area with reference to the calibration curve.
Extended pharmacokinetics of LaKe in rats – Detailed protocols for LC-MS/MS analyses 3-hydroxybutyl 2-hydroxypropanoate (LaKe): […]
3-hydroxybutyl 2-hydroxypropanoate (LaKe) was detected by SRM. […]

The test system of data set [3] is blood glucose. The data set is described as follows: Blood glucose in extended pharmacokinetics study. Format: in vivo, SD rats. As to conditions: high-dose LaKe exposure; continuous ingestion of 5% glucose water. Here is the method: as §1, §2
In data set [4] the test system is rats. The data set can be described thus: Behaviour and tolerability observations in extended pharmacokinetics study. The class given is in vivo. On the procedure: as §1

This is an account of results in article PMC11403612, “Preparation and Preclinical Characterization of a Simple Ester for Dual Exogenous Supply of Lactate and Beta-hydroxybutyrate” (Journal of Agricultural and Food Chemistry, 2024).

For orientation: half-life means how long it takes for the measured level to halve. Molecule `CC(O)CCOC(=O)C(C)O` (stereo not drawn) [LaKe, 3-hydroxybutyl 2-hydroxypropanoate] registered a half-life at 0.1 mg/ml in data set [1] below 120 min. In addition, in data set [2] (both sexes, SD, rat, plasma, oral, 1.3 g/kg, the lower dose, 15 min), the concentration at 15 min worked out at 540 nM. This molecule showed a concentration at 30 min in data set [2] (both sexes, SD, rat, plasma, oral, 1.3 g/kg, the lower dose, 30 min) of 260 nM. Moreover, in data set [2] (maximum dose of 12 g/kg), the “maximum average plasma level of LaKe” value stood at 5 µM. Also, the blood glucose entry in data set [3] is recorded as “nonsignificant trend toward lower glucose levels”. Besides, the behaviour observations result in data set [4] (12 g/kg, at 2 and 8 h following administration, some of the rats, normalized at 10 h) was “slightly reduced activity and a hunched posture”; in data set [4] (lower doses (1.3 g/kg and 4.1 g/kg), all time points) it was “normal behavior was observed at all time points”. Further, the signs of toxicity result in data set [4] (10 h following administration, any of the doses) is reported as “No signs of toxicity or deviation from normal behavior”. In addition, the overall tolerability entry in data set [4] (rats, oral, up to 12 g/kg) is on record as “well tolerated”.
